One experiment has as its target T1, Pin1 (Homo sapiens, UniProt Q13526).
T1 construct: purchased Anaspec
The experiment in a line: Evaluation of Pin1 enzyme inhibitory activity (Sensolyte Green Pin1 assay kit). In kind it is biochemical. In outline:
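Pin1 activity was measured with a fluorogenic kit assay (Sensolyte Green) using substrate prepared at 1 μM and protein at 50 μg/ml, both pre-mix concentrations. Compound working solutions were 100, 10, 1 or 0.1 μM, and reactions ran 2 h at room temperature in the dark, read at 490/520 nm. Inhibition was graded A–D by concentration.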

Experiment [1] relates to MDA-MB 231 triple negative breast cancer cell line. The experiment in a line: MDA-MB 231 protein expression inhibition (Western blotting, cycline D1 vs Vinculin). Conditions: Homo sapiens, compound 10 μM, 72 hours, cycline D1 Western blot, read-out: MBA-MB-231 (amount of the protein compared to the DMSO-treated control group). Format: cell-based. How it is done: In order to confirm the ability of the compound represented by formula 1 according to the present invention to inhibit the protein expression of MDA-MB 231 triple negative breast cancer cell line, the following experiment was performed, and the results are shown in Table 3 below.
MDA-MB-231 cells were cultured in a 5% CO2 incubator at 37° C. using RPMI medium supplemented with 10% FBS and 1% penicillin/streptomycin.
The cells were washed with PBS once a day, and then replaced with a new medium. The cells grown at the density of at least 90% 1 day before the experiment were detached using trypsin/EDTA, and then plated at the density of 100,000 per well in a 6-well plate.
On the next day of culture, the compound prepared in each example was treated at a concentration of 10 μM, and DMSO was treated at a concentration of 0.1% of the total as the control, followed by incubation for 72 hours. After 72 hours, the cells were washed twice with PBS, collected by scraping, and centrifuged at 13,000 rpm for 3 minutes to remove all the supernatant and only cells were taken.
RIPA buffer (containing 1× protease inhibitor and phosphatase inhibitor) was added to the prepared cells (80 μl/well), and the plate was shaken once every 5 minutes to disrupt the cells for a total of 15 minutes. The disrupted cells were centrifuged at 13,000 rpm for 15 minutes to collect only the supernatant protein. The obtained protein was quantified using a BCA protein quantification kit (Pierece, MA, USA), and a total of 10 μg of the protein was used for Western blotting.
The protein sample was isolated by 10% SDS-PAGE, and transferred to a PVDF membrane. Anti-human cycline D1 antibody (Cell signal) and anti-Vinculin antibody were bound to the protein sample, and the expression of the protein was measured by using an ECL reagent and LAS4000 equipment. The measurement results were quantified and generalized using ImageJ. The results are shown in Table 3 below by dividing the grades A to D according to the amount of the protein compared to the DMSO-treated control group.
A general note: In western blotting, separated proteins are transferred to a membrane and probed.

In experiment [2] the test system is A2780 cells (ovarian cancer cells). In words: Cell viability of A2780 cells (Cell-titer Glo). Format: cell-based. Particulars: Homo sapiens, 72 h; cell viability, culture for 3 days; read-out: A2780. In outline:
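A2780 ovarian cancer cells seeded at 3000 viable cells/well in RPMI-1640 with 10% FBS, dosed the next day and grown 3 days. Viability measured by Cell-titer Glo luminescence.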

The test system of experiment [3] is A2780-SP cells (ovarian cancer stem cells). The experiment in a line: Sphere cell viability of A2780-SP cells (Cell-titer Glo). In kind it is cell-based. In outline: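 A2780-SP ovarian cancer stem cells grown as spheres in ultra-low-attachment wells (1,500 cells/well) in neurobasal stem-cell medium with bFGF, EGF, B27. Compound added the day after plating, re-dosed on day 4, 8-day culture total; viability by CellTiter-Glo luminescence.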

Where [4] appears, read: concentration at which the Pin1 enzyme activity is inhibited, 2 hours at room temperature, fluorescence 490 nm/520 nm, read-out: Pin 1 inhibition.
Where [5] appears, read: Table 2, read-out: concentration at which Pin1 inhibitory activity was exhibited.
Setting [6] is: 192 h, sphere cell viability, culture for 8 days, read-out: A2780-SP.
The mark [7] stands for this setting: Table 5, read-out: the concentration (second list of b710, cell line not named; matches A2780-SP column).

Where two headings read alike, the source gives them in different places. Bounds are passed on as bounds.

T1 sequence (Q13526 whole entry): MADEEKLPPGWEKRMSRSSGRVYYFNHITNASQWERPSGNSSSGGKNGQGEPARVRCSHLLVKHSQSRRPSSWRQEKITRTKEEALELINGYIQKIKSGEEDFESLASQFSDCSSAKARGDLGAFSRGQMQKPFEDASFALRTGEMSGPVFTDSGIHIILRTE

For `CN(C)CCCOc1ccc(S(=O)(=O)NCCCc2c[nH]c3ccccc23)cc1` [Example 22, N-(3-(1H-indol-3-yl)propyl)-4-(3-(dimethylamino)propoxy)benzenesulfonamide], the IC50 at Pin1 (setting [4]) lay within 10 to 100 µM. The activity at 10 µM in experiment [1] lay within 70 to 100%.
`CN1CCN(CCCOc2ccc(S(=O)(=O)NCCCc3c[nH]c4ccccc34)cc2)CC1` [Example 31, N-(3-(1H-indol-3-yl)propyl)-4-(3-(4-methylpiperazin-1-yl)propoxy)benzenesulfonamide]: the IC50 on Pin1 (setting [4]) lay in the range of 1 to 10 µM. For the same molecule, the activity at 10 µM in experiment [1] fell in the range of 50 to 70%.
For `CCN(CC)CCCOc1ccc(S(=O)(=O)NCCCc2c[nH]c3ccccc23)cc1` [Example 35, N-(3-(1H-indol-3-yl)propyl)-4-(3-(diethylamino)propoxy)benzenesulfonamide], at Pin1 (setting [4]), the IC50 lay within 10 to 100 µM. Besides, the activity at 10 µM in experiment [1] was in the range of 0 to 35%.
On to `CCN1CCN(CCCOc2ccc(S(=O)(=O)NCCCc3c[nH]c4ccccc34)cc2)CC1` [Example 36, N-(3-(1H-indol-3-yl)propyl)-4-(3-(4-ethylpiperazin-1-yl)propoxy)benzenesulfonamide], for which the IC50 on Pin1 (setting [4]) was in the range of 1 to 10 µM. In addition, the activity at 10 µM in experiment [1] lay in the range of 70 to 100%.
Turning to `O=C1CCCN1CCCOc1ccc(S(=O)(=O)NCCCc2c[nH]c3ccccc23)cc1` [Example 44, N-(3-(1H-indol-3-yl)propyl)-4-(3-(2-oxopyrrolidin-1-yl)propoxy)benzenesulfonamide], on Pin1 (setting [4]), the IC50 was more than 100 µM. Also, the activity at 10 µM in experiment [1] was 70 to 100%.
Regarding `O=S(=O)(NCCCc1c[nH]c2ccccc12)c1ccc(OCCCN2CCNCC2)cc1` [Example 45, N-(3-(1H-indol-3-yl)propyl)-4-(3-(piperazin-1-yl)propoxy)benzenesulfonamide], the IC50 at Pin1 (setting [4]) was 1 to 10 µM. Besides, the activity at 10 µM in experiment [1] lay within 70 to 100%.
Consider `CN1CCC(CCOc2ccc(S(=O)(=O)NCCCc3c[nH]c4ccccc34)cc2)CC1` [Example 55, N-(3-(1H-indol-3-yl)propyl)-4-(2-(1-methylpiperidin-4-yl)ethoxy)benzenesulfonamide], for which, on Pin1 (setting [4]), the IC50 is 10 to 100 µM. Further, in experiment [1], the activity at 10 µM is 70 to 100%.
Turning to `CN1CCN(CCCOc2ccc(S(=O)(=O)N3CCC(c4c[nH]c5ccccc45)CC3)cc2)CC1` [Example 57, 3-(1-((4-(3-(4-methylpiperazin-1-yl)propoxy)phenyl)sulfonyl)piperidin-4-yl)-1H-indole], on Pin1 (setting [4]), the IC50 lay in the range of 10 to 100 µM. For the same molecule, in experiment [1], the activity at 10 µM was 70 to 100%.
As for `Cc1[nH]c2ccccc2c1CCCNS(=O)(=O)c1ccc(OCCCN2CCN(C)CC2)cc1` [Example 58, N-(3-(2-methyl-1H-indol-3-yl)propyl)-4-(3-(4-methylpiperazin-1-yl)propoxy)benzenesulfonamide], the IC50 on Pin1 (setting [4]) was in the range of 1 to 10 µM. Moreover, the activity at 10 µM in experiment [1] was in the range of 70 to 100%.
Consider `CN1CCC(CCCOc2ccc(S(=O)(=O)NCCCc3c[nH]c4ccccc34)cc2)CC1` [Example 60, N-(3-(1H-indol-3-yl)propyl)-4-(3-(1-methylpiperidin-4-yl)propoxy)benzenesulfonamide], for which the IC50 at Pin1 (setting [4]) lay in the range of 1 to 10 µM. Also, in experiment [1], the activity at 10 µM is 50 to 70%.
On to `O=S(=O)(NCCCc1c[nH]c2ccc(Cl)cc12)c1ccc(OCCCN2CCC(Cl)CC2)cc1` [Example 78, N-(3-(5-chloro-1H-indol-3-yl)propyl)-4-(3-(4-chloropiperidin-1-yl)propoxy)benzenesulfonamide], for which, on Pin1 (setting [4]), the IC50 is 1 to 10 µM. In addition, the activity at 10 µM in experiment [1] fell in the range of 0 to 35%.
As for `O=S(=O)(NCCCc1c[nH]c2ccc(Cl)cc12)c1ccc(OCCCN2CCC(F)CC2)cc1` [Example 80, N-(3-(5-chloro-1H-indol-3-yl)propyl)-4-(3-(4-fluoropiperidin-1-yl)propoxy)benzenesulfonamide], the IC50 at Pin1 (setting [4]) lay within 1 to 10 µM. The activity at 10 µM in experiment [1] fell in the range of 35 to 50%.
For `O=S(=O)(NCCCc1c[nH]c2ccc(Cl)cc12)c1ccc(OCCCN2CCC(C(F)(F)F)CC2)cc1` [Example 81, N-(3-(5-chloro-1H-indol-3-yl)propyl)-4-(3-(4-(trifluoromethyl)piperidin-1-yl)propoxy)benzenesulfonamide] the same measures were 1 to 10 µM and 0 to 35%.
Turning to `O=S(=O)(NCCCc1c[nH]c2ccc(Cl)cc12)c1ccc(OCCCN2CCC(F)(F)CC2)cc1` [Example 82, N-(3-(5-chloro-1H-indol-3-yl)propyl)-4-(3-(4,4-difluoropiperidin-1-yl)propoxy)benzenesulfonamide], the IC50 on Pin1 (setting [4]) fell in the range of 1 to 10 µM. Besides, the activity at 10 µM in experiment [1] was in the range of 70 to 100%.
Take `CN1CCN(CCCOc2ccc(S(=O)(=O)NCCCc3c[nH]c4cc(Cl)c(Cl)cc34)cc2)CC1` [Example 184, N-(3-(5,6-dichloro-1H-indol-3-yl)propyl)-4-(3-(4-methylpiperazin-1-yl)propoxy)benzenesulfonamide]: the IC50 is less than 1 µM on Pin1 (setting [5]); less than 1 µM at Pin1 (setting [4]); more than 10 µM in experiment [2]; less than 1 µM in experiment [3] (setting [6]); less than 1 µM in experiment [3] (setting [7]).
On to `O=S(=O)(NCCCc1c[nH]c2ccc(Cl)cc12)c1ccc(CCCOc2ccncc2)cc1` [Example 185, N-(3-(5-chloro-1H-indole-3-yl)propyl)-4-(3-(pyridine-4-yloxy)propyl)benzenesulfonamide], for which the IC50 is less than 1 µM on Pin1 (setting [5]), less than 1 µM at Pin1 (setting [4]), more than 10 µM in experiment [2] and more than 10 µM in experiment [3] (setting [6]).
For the molecule `CN1CCN(CCCc2ccc(S(=O)(=O)NCCCc3c[nH]c4ccc(Cl)cc34)cc2)CC1` [Example 186, N-(3-(5-chloro-1H-indol-3-yl)propyl)-4-(3-(4-methylpiperazin-1-yl)propyl)benzenesulfonamide], the IC50 at Pin1 (setting [5]) was less than 1 µM; at Pin1 (setting [4]), less than 1 µM; in experiment [2], more than 10 µM; in experiment [3] (setting [6]), less than 1 µM; in experiment [3] (setting [7]), less than 1 µM.
Regarding `CN1CCN(CCCOc2ccc(S(=O)(=O)NCC3CCc4[nH]c5ccc(F)cc5c4C3)cc2)CC1` (centres unmarked) [Example 187, N-((6-fluoro-2,3,4,9-tetrahydro-1H-carbazol-3-yl)methyl)-4-(3-(4-methylpiperazin-1-yl)propoxy)benzenesulfonamide], the IC50 on Pin1 (setting [5]) was less than 1 µM; at Pin1 (setting [4]) it was less than 1 µM; in experiment [2], more than 10 µM; in experiment [3] (setting [6]), less than 1 µM; in experiment [3] (setting [7]), less than 1 µM.
`O=S(=O)(NCC1CCc2[nH]c3ccc(F)cc3c2C1)c1ccc(OCCCN2CCNCC2)cc1` (centres unmarked) [Example 188, N-((6-fluoro-2,3,4,9-tetrahydro-1H-carbazol-3-yl)methyl)-4-(3-(piperazin-1-yl)propoxy)benzenesulfonamide]: the IC50 was less than 1 µM at Pin1 (setting [5]); less than 1 µM at Pin1 (setting [4]); more than 10 µM in experiment [2]; less than 1 µM in experiment [3] (setting [6]); less than 1 µM in experiment [3] (setting [7]).
For the molecule `CN1CCN(CCCOc2ccc(S(=O)(=O)NCC3CCc4[nH]c5ccccc5c4C3)cc2)CC1` (centres unmarked) [Example 189, 4-(3-(4-methylpiperazin-1-yl)propoxy)-N-((2,3,4,9-tetrahydro-1H-carbazol-3-yl)methyl)benzenesulfonamide], the IC50 on Pin1 (setting [5]) was less than 1 µM; on Pin1 (setting [4]) it was less than 1 µM; in experiment [2], more than 10 µM; in experiment [3] (setting [6]), less than 1 µM; in experiment [3] (setting [7]), less than 1 µM.
Take `O=S(=O)(NCC1CCc2[nH]c3ccccc3c2C1)c1ccc(OCCCN2CCNCC2)cc1` (centres unmarked) [Example 190, 4-(3-(piperazin-1-yl)propoxy)-N-((2,3,4,9-tetrahydro-1H-carbazol-3-yl)methyl)benzenesulfonamide]: the IC50 on Pin1 (setting [5]) is less than 1 µM; at Pin1 (setting [4]) it was less than 1 µM; in experiment [2] it was more than 10 µM; in experiment [3] (setting [6]), less than 1 µM; in experiment [3] (setting [7]) it was less than 1 µM.

(Values after US12583818B2 (DAEGU-GYEONGBUK MEDICAL INNOVATION FOUNDATION, priority 2020, dated 2026).)
